Source: patent US9347937B2, “Vaccine comprising Amb a 1 peptides for use in the treatment of ragweed allergy” (Circassia Limited, priority 2008, dated 2016)
No end group written: not given here.

Legend:
[1] = test system: blood basophils from ragweed allergic subjects; experiment: Histamine release assay (Immunotech Histamine Release Immunoassay kit); settings: for Subjects with histamine release >15% of positive control: 43 or 20 subjects, highest dose tested 10 μg/ml
Protocol: Peptides or combinations of peptides that induce histamine release frequently may be considered unsuitable for inclusion in the peptide vaccine.
Histamine release requires the crosslinking of adjacent specific IgE molecules on the surface of the basophil.
Histamine release from fresh peripheral whole blood from ragweed allergic subjects was evaluated. Peripheral blood basophils were used as a surrogate for tissue mast cells which were not practical to assay.
Histamine release in response to whole ragweed allergen extract was measured in each subject to confirm basophil sensitisation. A positive control, representing total histamine release, generated by freeze/thawing the cells twice, was included in each assay. A negative control for spontaneous histamine release was generated by incubating cells in buffer only.
The assay was performed using the Immunotech Histamine Release Immunoassay kit according to the manufacturer's instructions. Following the in vitro challenge of blood basophils with peptides, peptide mixes, whole allergen or buffer in microtitre plate wells, supernatants were removed and the histamine in the samples converted to acyl histamine. Acylated samples were tested by a competitive acyl histamine ELISA.
Peptides were assayed for their ability to induce histamine release over a 5 log 10 range (1 to 10,000 ng/ml). The concentration range assayed was selected based on theoretical in vivo doses of peptide that may be achieved during therapy. […] Whole ragweed allergen extract was used over a slightly higher concentration range (10 to 100,000 ng/ml).
Single measurements were performed for each dilution. After completion of the ELISA, individual histamine levels were determined by interpolation from the standard curve generated in the ELISA assay. Results from samples were adjusted to allow for dilution.

[2] = In vitro solubility testing in an acidic environment; format: physicochemical
Protocol: Accordingly, the inventors have determined that RGW03B is preferred over RGW03.
The modified peptides were tested for solubility and their ability to induce IL-10 from PBMC in the presence of the mixture of peptides identified in FIG. 1 (RGW01+RGW03B+RGW04A+RGW02+RGW05+RGW06A). Controls included the peptide mixture with no RGW07 variant and with whole Amb a 1 allergen.

[3] = pH 2.97, Table 6, RGW07 and variants, acidic environment
[4] = pH 2.97 0.1 mM HCl, 0.5% (w/v) 1-thioglycerol (ca. 46 mM), 230 mM trehalose

Row | Sequence | Maximum histamine release (% of positive control at 10 μg/mL) [1] [%] | Mean histamine release of 43 or 20 subjects as a % of positive control at 10 μg/mL [1] [%] | Subjects with histamine release >15% of positive control [1] | solubility in an acidic environment ([2]; acidic environment) | solubility [2, 3] [µg/mL] | solubility [2, 4] [µg/mL]
1 | AINNDKTIDGRGAKVE [RGW06A] | 0 | 1 | 0/43 | – | – | –
2 | GEAAIKLTSSAGVLS [RGW07] | 0 | 1 | 0/43 | poor solubility | 700 | –
3 | GMIKSNDGPPI [RGW01] | 0 | 1 | 0/43 | – | – | –
4 | GSSQIWIDHSSLSKS [RGW02] | 0 | 1 | 0/43 | – | – | –
5 | KDLLENGAIFVTSG [RGW03] | – | – | – | – | – | < 620
6 | KEGTLRFAAAQNRP [RGW05] | 0 | 0 | 0/43 | – | – | –
7 | KGEAAIKLTSSAGVLSK [RGW07C] | – | – | – | – | 1550 | –
8 | KGEAAIKLTSSAGVLSKK [RGW07D] | 0 | 3 | 0/20 | – | 4260 | –
9 | RDLLENGAIFLPSG [RGW03B] | 0 | 1 | 0/43 | – | – | 3850
10 | SAGMIPAEPGEA [RGW04A] | 0 | 0 | 0/43 | – | – | –
